The CheMixHub viscosity set
Values joined by “and” are separate entries in the source; they are usually repeats but may differ in a detail not shown here. Equal entries are not always repeated.

Assay: xn = mol fraction of the nth substance listed

CC(=O)Nc1ccc(O)cc1 + O
viscosity, 101 kPa
Conditions | x1 = 0.00011 | x1 = 0.000241 | x1 = 0.000483 | x1 = 0.000727 | x1 = 0.000975 | x1 = 0.00122
298.15 K | 0.8928 mPa·s and 0.8928 mPa·s | 0.8964 mPa·s and 0.8964 mPa·s | 0.9001 mPa·s and 0.9001 mPa·s | 0.9061 mPa·s and 0.9061 mPa·s | 0.9121 mPa·s and 0.9121 mPa·s | 0.9178 mPa·s and 0.9178 mPa·s
308.15 K | 0.7208 mPa·s and 0.7208 mPa·s | 0.7243 mPa·s and 0.7243 mPa·s | 0.7281 mPa·s and 0.7279 mPa·s | 0.7329 mPa·s and 0.7329 mPa·s | 0.7378 mPa·s and 0.7378 mPa·s | 0.7424 mPa·s and 0.7424 mPa·s
318.15 K | 0.598 mPa·s and 0.598 mPa·s | 0.6004 mPa·s and 0.6004 mPa·s | 0.6053 mPa·s and 0.6053 mPa·s | 0.6102 mPa·s and 0.6102 mPa·s | 0.6151 mPa·s and 0.6151 mPa·s | 0.6197 mPa·s and 0.6197 mPa·s

CN1CCNCC1 + O
Conditions | viscosity [mPa·s]
298.15 K, 101 kPa, x1 = 0.1039 | 10.75

NCc1ccccc1 + O
viscosity [mPa·s]
Conditions | 293.15 K | 303.15 K | 313.15 K | 323.15 K
100 kPa, x1 = 0.1 | – | 2.231 | 1.725 | 1.385
100 kPa, x1 = 0.2 | – | 3.098 | 2.324 | 1.793
100 kPa, x1 = 0.3 | – | 3.387 | 2.512 | 1.956
100 kPa, x1 = 0.4 | – | 3.323 | 2.51 | 1.93
100 kPa, x1 = 0.5 | – | 3.1 | 2.353 | 1.831
100 kPa, x1 = 0.6 | – | 2.669 | 2.064 | 1.648
100 kPa, x1 = 0.7 | – | 2.308 | 1.823 | 1.469
100 kPa, x1 = 0.8 | – | 1.957 | 1.591 | 1.309
100 kPa, x1 = 0.9 | – | 1.681 | 1.396 | 1.182
101 kPa, x1 = 0.1003 | 3.23 | 2.28 | 1.7 | 1.38
101 kPa, x1 = 0.2001 | 4.4 | 3.07 | 2.25 | 1.78
101 kPa, x1 = 0.3 | 4.8 | 3.37 | 2.48 | 1.93
101 kPa, x1 = 0.3997 | 4.63 | 3.3 | 2.46 | 1.91
101 kPa, x1 = 0.5002 | 4.16 | 3.05 | 2.28 | 1.79
101 kPa, x1 = 0.6 | 3.57 | 2.67 | 2.03 | 1.63
101 kPa, x1 = 0.7 | 2.95 | 2.28 | 1.78 | 1.47
101 kPa, x1 = 0.7999 | 2.48 | 1.94 | 1.55 | 1.3
101 kPa, x1 = 0.9 | 2.1 | 1.68 | 1.36 | 1.15

O=C[C@H](O)[C@@H](O)[C@H](O)[C@H](O)CO + O
Conditions | viscosity
293.15 K, 101 kPa, x1 = 0.002 | 1.043 mPa·s
293.15 K, 101 kPa, x1 = 0.0026 | 1.079 mPa·s
293.15 K, 101 kPa, x1 = 0.005 | 1.13 mPa·s
293.15 K, 101 kPa, x1 = 0.011 | 1.24 mPa·s and 1.34 mPa·s
293.15 K, 101 kPa, x1 = 0.0244 | 1.95 mPa·s
293.15 K, 101 kPa, x1 = 0.0411 | 3.01 mPa·s
293.15 K, 101 kPa, x1 = 0.0625 | 5.4 mPa·s
293.15 K, 101.3 kPa, x1 = 0.001 | 1.021 mPa·s
298.15 K, 100 kPa, x1 = 0.0009 | 1.019 mPa·s
298.15 K, 101 kPa, x1 = 0.0002 | 0.9013 mPa·s
298.15 K, 101 kPa, x1 = 0.0005 | 0.9169 mPa·s
298.15 K, 101 kPa, x1 = 0.001 | 0.9634 mPa·s
298.15 K, 101 kPa, x1 = 0.0018 | 0.9874 mPa·s
298.15 K, 101 kPa, x1 = 0.002 | 0.9826 mPa·s
298.15 K, 101 kPa, x1 = 0.00413 | 0.9934 mPa·s
298.15 K, 101 kPa, x1 = 0.005 | 1.015 mPa·s
298.15 K, 101 kPa, x1 = 0.00623 | 1.03 mPa·s
298.15 K, 101 kPa, x1 = 0.011 | 1.15 mPa·s
298.15 K, 101 kPa, x1 = 0.02 | 1.42 mPa·s
298.15 K, 101 kPa, x1 = 0.0244 | 1.68 mPa·s
298.15 K, 101 kPa, x1 = 0.0411 | 2.48 mPa·s
298.15 K, 101 kPa, x1 = 0.0625 | 4.48 mPa·s
298.15 K, 101 kPa, x1 = 0.0909 | 8.75 mPa·s and 12.75 mPa·s
303.15 K, 100 kPa, x1 = 0.0009 | 0.9332 mPa·s
303.15 K, 101 kPa, x1 = 0.002 | 0.8392 mPa·s
303.15 K, 101 kPa, x1 = 0.004 | 0.8723 mPa·s
303.15 K, 101 kPa, x1 = 0.005 | 0.9084 mPa·s
303.15 K, 101.3 kPa, x1 = 0.001 | 0.814 mPa·s
308.15 K, 100 kPa, x1 = 0.0009 | 0.8522 mPa·s
308.15 K, 101 kPa, x1 = 0.00209 | 0.7871 mPa·s
308.15 K, 101 kPa, x1 = 0.004 | 0.7909 mPa·s
308.15 K, 101 kPa, x1 = 0.00413 | 0.8216 mPa·s
308.15 K, 101 kPa, x1 = 0.005 | 0.8313 mPa·s
308.15 K, 101 kPa, x1 = 0.008982 | 0.911 mPa·s
308.15 K, 101 kPa, x1 = 0.011 | 0.98 mPa·s and 1.05 mPa·s
308.15 K, 101 kPa, x1 = 0.01441 | 1.037 mPa·s
308.15 K, 101 kPa, x1 = 0.0179 | 1.134 mPa·s
308.15 K, 101 kPa, x1 = 0.02 | 1.133 mPa·s and 1.086 mPa·s
308.15 K, 101 kPa, x1 = 0.02311 | 1.278 mPa·s
308.15 K, 101 kPa, x1 = 0.0244 | 1.34 mPa·s
308.15 K, 101 kPa, x1 = 0.02991 | 1.442 mPa·s
308.15 K, 101 kPa, x1 = 0.03509 | 1.711 mPa·s
308.15 K, 101 kPa, x1 = 0.0411 | 1.94 mPa·s
308.15 K, 101 kPa, x1 = 0.05203 | 2.579 mPa·s
308.15 K, 101 kPa, x1 = 0.0591 | 3.084 mPa·s
308.15 K, 101 kPa, x1 = 0.0625 | 3.31 mPa·s
308.15 K, 101 kPa, x1 = 0.0909 | 6.58 mPa·s and 9 mPa·s
313.15 K, 100 kPa, x1 = 0.0009 | 0.7853 mPa·s
313.15 K, 101 kPa, x1 = 0.002 | 0.6943 mPa·s
313.15 K, 101 kPa, x1 = 0.004 | 0.7341 mPa·s
313.15 K, 101 kPa, x1 = 0.005 | 0.7858 mPa·s
313.15 K, 101 kPa, x1 = 0.011 | 0.81 mPa·s and 0.97 mPa·s
313.15 K, 101 kPa, x1 = 0.02 | 1.022 mPa·s and 0.9825 mPa·s
313.15 K, 101 kPa, x1 = 0.0244 | 1.19 mPa·s
313.15 K, 101 kPa, x1 = 0.0411 | 1.69 mPa·s
313.15 K, 101 kPa, x1 = 0.0625 | 2.96 mPa·s
313.15 K, 101 kPa, x1 = 0.0909 | 4.88 mPa·s and 5.67 mPa·s
313.15 K, 101 kPa, x1 = 0.13 | 13.08 mPa·s and 11.8 mPa·s
313.15 K, 101.3 kPa, x1 = 0.001 | 0.671 mPa·s
318.15 K, 101 kPa, x1 = 0.008982 | 0.756 mPa·s
318.15 K, 101 kPa, x1 = 0.011 | 0.71 mPa·s and 0.85 mPa·s
318.15 K, 101 kPa, x1 = 0.01441 | 0.861 mPa·s
318.15 K, 101 kPa, x1 = 0.0179 | 0.941 mPa·s
318.15 K, 101 kPa, x1 = 0.02 | 0.9234 mPa·s and 0.8774 mPa·s
318.15 K, 101 kPa, x1 = 0.02311 | 1.061 mPa·s
318.15 K, 101 kPa, x1 = 0.0244 | 1.05 mPa·s
318.15 K, 101 kPa, x1 = 0.02991 | 1.197 mPa·s
318.15 K, 101 kPa, x1 = 0.03509 | 1.42 mPa·s
318.15 K, 101 kPa, x1 = 0.0411 | 1.43 mPa·s
318.15 K, 101 kPa, x1 = 0.05203 | 2.141 mPa·s
318.15 K, 101 kPa, x1 = 0.0591 | 2.561 mPa·s
318.15 K, 101 kPa, x1 = 0.0625 | 2.47 mPa·s
318.15 K, 101 kPa, x1 = 0.0909 | 3.91 mPa·s and 4.65 mPa·s
318.15 K, 101 kPa, x1 = 0.13 | 10.56 mPa·s and 8 mPa·s
323.15 K, 101 kPa, x1 = 0.011 | 0.72 mPa·s and 0.78 mPa·s
323.15 K, 101 kPa, x1 = 0.02 | 0.8435 mPa·s and 0.7914 mPa·s
323.15 K, 101 kPa, x1 = 0.0244 | 0.97 mPa·s
323.15 K, 101 kPa, x1 = 0.0411 | 1.29 mPa·s
323.15 K, 101 kPa, x1 = 0.0625 | 2.19 mPa·s
323.15 K, 101 kPa, x1 = 0.0909 | 3.68 mPa·s and 4.56 mPa·s
323.15 K, 101 kPa, x1 = 0.13 | 8.63 mPa·s and 7.5 mPa·s
